Results published in US20210132065A1, “MAMMALIAN MHC PEPTIDE DISPLAY AS AN EPITOPE SELECTION TOOL FOR VACCINE DESIGN” (ETH Zürich, priority 2018, published 2021).
Like-named read-outs stand apart in the source and are kept apart here. Where no end group is shown, it is not given here.

What was measured:
HLA DRB 1-4 = conditions: published studies; cited from earlier work
HLA-DRB1_4 = format: cell-based, human; conditions: for MCR surface expression: peptide covalently linked to beta chain, anti-HLA-DR APC antibody, FACS

Substance | presentation by HLA (HLA DRB 1-4) | MCR surface expression (HLA-DRB1_4) | also measured
MP1 103-117: MP1 peptide comprising amino acids 103-117, known from published studies (Schmid et al Immunity 2007) (LKREITFHGAKEISL; UniProt P03485 103-117, looked up, fragment) | efficiently presented |  | 
MP1 107-121: MP1 peptide comprising amino acids 107-121, known from published studies (Schmid et al Immunity 2007) (ITFHGAKEISLSYSA; UniProt P03485 107-121, looked up, fragment) | efficiently presented |  | 
MP162-72: influenza Matrix Protein 1-derived peptide comprising amino acids 62-72, covalently linked to the HLA beta chain of the MCR (FVFTLTVPSER; also: covalently linked to HLA beta chain of the MCR; UniProt P03485 62-72, looked up, fragment) |  | not the other HLAs tested | 
MP1103-120: influenza Matrix Protein 1 peptide, amino acids 103-120, covalently linked to the HLA beta chain of the MCR (LKREITFHGAKEISLSYS; also: covalently linked to HLA beta chain of the MCR; UniProt P03485 103-120, looked up, fragment) |  | efficient surface expression | MCR surface expression (HLA-DRB1_4; listed as MP1103-121): high surface expression
MP1107-117: core epitope of influenza Matrix Protein 1, amino acids 107-117, tested within peptides with different flanking regions (ITFHGAKEISL; UniProt P03485 107-117, looked up, fragment) |  |  | presentation (MCR surface expression) (HLA-DRB1_4; FIG. 6, anti-CD3e or anti-HLA-DR PE antibodies, peptides containing the core epitope with different flanking regions): efficiently be presented
